Data as given in patent US4382090A, “N-Thiazolylmethylthioalkyl-N'alkylamidines and related compounds” (Eli Lilly and Company, priority 1981, dated 1983).
One block for each molecule: values may come before it.

Legend:
H2 -receptor [1] = settings: cited from earlier work
H2 -receptor [2] = settings: cited from earlier work; remark: listed apart in the source
H2 -receptors = target: T1, H2 -receptors (Rattus norvegicus, UniProt P25102); experiment: H2-receptor blocking activity, isolated rat uterine horn (histamine relaxation of KCl-contracted uterus); settings: for Kb: rat uterus, Schild plot, read-out: KB (dissociation constant of the antagonist)
T1 construct: from tissue; host or cells: uterine horn of estrone-treated female albino rats
T1 sequence (P25102 whole entry): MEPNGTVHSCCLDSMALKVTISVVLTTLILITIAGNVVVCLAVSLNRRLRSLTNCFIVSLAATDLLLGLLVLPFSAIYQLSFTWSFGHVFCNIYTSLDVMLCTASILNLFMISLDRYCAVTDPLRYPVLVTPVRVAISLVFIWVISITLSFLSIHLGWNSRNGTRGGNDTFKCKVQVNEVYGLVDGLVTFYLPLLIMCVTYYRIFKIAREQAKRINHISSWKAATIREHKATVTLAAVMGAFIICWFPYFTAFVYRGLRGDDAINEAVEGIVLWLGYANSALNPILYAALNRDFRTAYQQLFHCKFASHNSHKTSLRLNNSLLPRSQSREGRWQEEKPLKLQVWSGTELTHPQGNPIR
Protocol: The following assay for H2 -receptor blocking activity was employed. Female albino rats were treated with estrone 24 hours prior to the initiation of the experiment. The rats were sacrificed and the uterine horns removed therefrom and suspended at ambient temperatures in isolated organ baths containing De Jalon's solution. After equilibration, the uterine strips are exposed to 50 millimole aqueous potassium chloride, which produces a sustained contraction. When the uterus is so contracted, histamine produces a dose-dependent H2 -receptor-mediated relaxation. A control dose-response curve to histamine is constructed on each tissue. Following thorough washout of the histamine after obtaining the control dose-response curve, each antagonist (the compounds of this invention) is added for 30 minutes at a concentration of 10^-5 molar. The uterine strips are then contracted with aqueous potassium chloride in the presence of the antagonist and a second dose-response curve to histamine obtained. In the presence of a competitive antagonist, the dose-response curve to histamine is shifted in parallel to the right with no depression of the maximum relative to the control curve. The dose ratio (DR) is calculated for each concentration of antagonist by dividing the ED50 of histamine in the presence of the competitive antagonist by the control ED50 for histamine. The dissociation constant (KB) of the antagonist is calculated from the dose-ratios by the following equation: […]

[3] = Preliminary tests of duration of action
[4] = cited from earlier work
[5] = cited from earlier work; remark: listed apart in the source

Compound: C#CCNC(=C[N+](=O)[O-])NCCSCc1ccc(CN(C)C)o1 [1-nitro-2-(2-propynylamino)-2-(2-[(5-dimethylaminomethyl-2-furyl)methylthio]ethylamino)ethylene]
activity relative to cimetidine in a standard H2 -receptor assay (H2 -receptor [1]): 7.45 times

Compound: CNC(=NC#N)NCCSCc1csc(NC(=N)N)n1 [2-guanidino-4-[2-(2-cyano-3-methylguanidino)ethylthiomethyl]thiazole]
activity compared with cimetidine (H2 -receptor [2]): greatly increased activity over cimetidine

Kb (H2 -receptors): 87 nM
Compound: CNC(=C[N+](=O)[O-])NCCSCc1csc(CN(C)C)n1 [N-methyl-N'-2-(2-dimethylaminomethyl-4-thiazolylmethylthio)ethyl 2-nitro-1,1-ethenediamine]
duration of action compared with cimetidine [3]: longer duration of action

affinity for the H2 -receptors relative to cimetidine (H2 -receptors; rat uterine strips, antagonist 10^-5 molar for 30 minutes): about 1.5 times
Compound: CNC(=NC#N)NCCSCc1csc(CN(C)C)n1 [N-methyl-N'-2-(2-dimethylaminomethyl-4-thiazolylmethylthio)ethyl-N"-cyanoguanidine]

Compound: CN/C(=N/CCSCc1nc[nH]c1C)NC#N [cimetidine, N-cyano-N'-methyl-N"-[2-([(5-methyl-1H-imidazol-4-yl)methyl]thio)ethyl]guanidine]
Kb (H2 -receptors): 871 nM
Literature LD50 rat iv ([4]; iv): 106 mg/kg
Literature LD50 rat oral ([4]; oral): 5000 mg/kg
Literature LD50 mouse iv [5]: 150 mg/kg
